Values of other authors as cited in patent US20020004046A1, “Combination therapy of respiratory diseases using antibodies” (priority 2000, published 2002).

Assays:
[1] = compared with untreated patients

## NC(=O)c1ncn([C@@H]2O[C@H](CO)[C@@H](O)[C@H]2O)n1 [ribavirin]
[1]
  level of secondary infection following cessation of treatment: significantly higher
Given orally
  bioavailability: about 45%
In vivo, po
  time of peak concentrations in plasma: 1 to 2 h
